Experimental data taken from publication PMC4307180, “Overcoming myelosuppression due to synthetic lethal toxicity for FLT3-targeted acute myeloid leukemia therapy” (eLife, 2014).
Entries after “also recorded” stand apart in the source; their conditions may differ.

Assays:
PDGFRα = PDGFRα (Homo sapiens, UniProt P16234); experiment: Reaction Biology Corp kinase assay at Km-ATP (Figure 1C), PDGFRα
Ba/F3 FLT3 D835V = experiment: Ba/F3 cell viability, FLT3 D835V; type: cell-based; conditions: Mus musculus, BaF3; Ba/F3, 48 hr, ± SEM
Method: (§1) Stable Ba/F3 lines were generated by retroviral spinfection with the appropriate mutated plasmid as previously described ([Smith et al., 2012]).
(§2) Exponentially growing cells (5 × 10^3 cells per well) were plated in each well of a 96-well plate with 0.1 ml of RPMI 1640 + 10% (vol/vol) FCS containing the appropriate concentration of drug in triplicate, and cell viability was assessed after 48 hr as previously described ([Smith et al., 2012]). […] Log10-scale transformation of ratios, followed by conditional formatting using xcel spreadsheet software yielded the colored diagrams shown.
(§3) Mutations isolated in the screen were engineered into pMSCVpuroFLT3–ITD by QuikChange mutagenesis (Stratagene, La Jolla, CA) as previously described ([Smith et al., 2012]).

[1] = test system: primary patient FLT3 D835 AML circulating blasts; experiment: Colony-forming assay, primary patient FLT3-D835 AML blasts; type: cell-based, human
Excerpt: Primary AML blood samples and/or marrow aspirates were obtained on an IRB-approved protocol at the University of California, San Francisco. Informed consent was obtained in accordance with the Declaration of Helsinki. Mononuclear cells were purified by density centrifugation (Ficoll–Paque Plus, GE Healthsciences) before cryopreservation in 10% (vol/vol) DMSO or FCS (primary ITD and D835-mutant assays, Figure 3A–C) or immediate use in assays (Normal BM and SPB, Figure 3D–F). Normal BM and stimulated peripheral blood (SPB) samples were collected from donors at the UCSF oncology/hematology division. Cells were then suspended in MethoCult methylcellulose (Stem Cell Technologies, product no. H4435 Enriched, Canada) in 15-ml Falcon tubes, vigorously vortexed, bubbles settled over 10 min. Triplicates then plated via blunt-nosed syringe (1.1 ml each) into 3-cm dishes, avoiding bubble generation, and each dish placed in a larger 10-cm dish with water trough in an incubator (37°C, 5% CO2) for 13–14 days. Colonies were counted individually using traditional microscopy. CFU and BFU types reported separately (CFU-GEMM colonies counted as one of each).

purified FLT3 WT = target: T1, purified FLT3 WT (Homo sapiens, UniProt P36888); experiment: Radiolabeled purified kinase assay (Figure 1B)
T1 sequence (P36888 27-993): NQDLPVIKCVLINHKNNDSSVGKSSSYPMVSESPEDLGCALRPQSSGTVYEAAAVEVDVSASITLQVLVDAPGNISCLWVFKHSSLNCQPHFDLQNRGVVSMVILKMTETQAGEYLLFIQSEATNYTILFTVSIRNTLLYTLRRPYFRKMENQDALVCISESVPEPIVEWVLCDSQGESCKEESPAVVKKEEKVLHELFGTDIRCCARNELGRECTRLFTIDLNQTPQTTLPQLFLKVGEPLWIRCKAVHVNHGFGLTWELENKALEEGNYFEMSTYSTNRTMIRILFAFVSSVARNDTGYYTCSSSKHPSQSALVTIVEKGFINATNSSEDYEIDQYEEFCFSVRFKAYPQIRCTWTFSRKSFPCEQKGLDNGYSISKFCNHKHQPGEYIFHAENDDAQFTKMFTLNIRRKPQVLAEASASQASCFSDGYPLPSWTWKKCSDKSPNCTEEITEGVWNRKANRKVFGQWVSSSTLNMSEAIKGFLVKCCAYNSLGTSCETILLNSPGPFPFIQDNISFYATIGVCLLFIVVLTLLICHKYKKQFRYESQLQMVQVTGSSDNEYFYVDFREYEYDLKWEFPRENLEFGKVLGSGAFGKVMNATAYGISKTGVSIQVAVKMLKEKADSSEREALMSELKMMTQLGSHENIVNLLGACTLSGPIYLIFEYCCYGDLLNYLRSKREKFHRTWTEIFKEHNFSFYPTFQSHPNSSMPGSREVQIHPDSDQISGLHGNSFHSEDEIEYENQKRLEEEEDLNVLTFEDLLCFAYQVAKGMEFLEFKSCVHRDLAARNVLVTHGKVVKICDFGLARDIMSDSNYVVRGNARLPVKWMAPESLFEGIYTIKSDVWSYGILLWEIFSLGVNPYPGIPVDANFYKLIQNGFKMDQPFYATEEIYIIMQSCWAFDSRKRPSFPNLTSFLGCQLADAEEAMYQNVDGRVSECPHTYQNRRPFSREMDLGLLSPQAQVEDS

Ba/F3 FLT3 ITD + D835V = experiment: Ba/F3 cell viability, FLT3 ITD + D835V; type: cell-based; conditions: Mus musculus, Ba/F3, 48 hr, ± SEM
Method: as §1, §2, §3

Ba/F3 FLT3 ITD + D698N = experiment: Ba/F3 cell viability, FLT3 ITD + D698N; type: cell-based; conditions: Mus musculus, Ba/F3, 48 hr, ± SEM
Method: as §1, §2, §3

Ba/F3 FLT3 ITD + D839G = experiment: Ba/F3 cell viability, FLT3 ITD + D839G; type: cell-based; conditions: Mus musculus, Ba/F3, 48 hr, ± SEM
Method: as §1, §2, §3

[2] = test system: Molm14 cells (FLT3-ITD heterozygous); experiment: Cell proliferation/viability assay, Molm14; type: cell-based; conditions: Homo sapiens, MOLM-14, 48 hr, ± SEM
Method: as §2

Ba/F3 FLT3 ITD + Y842C = experiment: Ba/F3 cell viability, FLT3 ITD + Y842C; type: cell-based; conditions: Mus musculus, Ba/F3, 48 hr, ± SEM
Method: as §1, §2, §3

Ba/F3 FLT3 ITD + D835F = experiment: Ba/F3 cell viability, FLT3 ITD + D835F; type: cell-based; conditions: Mus musculus, Ba/F3, 48 hr, ± SEM
Method: as §1, §2, §3

Ba/F3 FLT3 ITD = experiment: Ba/F3 cell viability, FLT3 ITD; type: cell-based; conditions: Mus musculus, Ba/F3, 48 hr, ± SEM
Method: as §1, §2, §3

zebrafish embryos = experiment: Zebrafish embryonic development / WT morphology; type: in vivo, Danio rerio (zebrafish); conditions: 3 dpf, drug from 6 hpf
Method: Figure 4. […] (N–P) Three categories of mpo transcription (N, normal; O, intermediate; P, severe) were defined based on the WISH results (three experiments). […] Scale bar equals 500 μm. Blue arrows indicate the pericardial edema, green arrows indicate tail shortening and curving, and red arrows indicate the FLT3-ITD AML mpo+ myeloid cells expansion. […] For all experiments: Zebrafish embryos were collected and kept in standard E3 medium at 28°C. Different concentrations of either drug were added to the E3 medium from 6 hr post fertilization (hpf) to 3 days post fertilization (dpf). Embryos treated with DMSO or 10 μM drug from 6 to 30 hpf were collected for mpo whole mount in situ hybridization (WISH) analysis. […] plasmid DNA containing FLT3/ITD sequence was microinjected into one-cell stage embryos, and the uninjected embryos were used as control. FLT3/ITD-injected embryos were treated with DMSO or 10 μM drug from 6 to 30 hpf.
Wild-type (WT) zebrafish were maintained under standard conditions, and embryos were staged as described ([He et al., 2014]). The study was approved by the Committee of the Use of Live Animals for Teaching and Research in The University of Hong Kong.

Sequence of PDGFRα (P16234 24-1089): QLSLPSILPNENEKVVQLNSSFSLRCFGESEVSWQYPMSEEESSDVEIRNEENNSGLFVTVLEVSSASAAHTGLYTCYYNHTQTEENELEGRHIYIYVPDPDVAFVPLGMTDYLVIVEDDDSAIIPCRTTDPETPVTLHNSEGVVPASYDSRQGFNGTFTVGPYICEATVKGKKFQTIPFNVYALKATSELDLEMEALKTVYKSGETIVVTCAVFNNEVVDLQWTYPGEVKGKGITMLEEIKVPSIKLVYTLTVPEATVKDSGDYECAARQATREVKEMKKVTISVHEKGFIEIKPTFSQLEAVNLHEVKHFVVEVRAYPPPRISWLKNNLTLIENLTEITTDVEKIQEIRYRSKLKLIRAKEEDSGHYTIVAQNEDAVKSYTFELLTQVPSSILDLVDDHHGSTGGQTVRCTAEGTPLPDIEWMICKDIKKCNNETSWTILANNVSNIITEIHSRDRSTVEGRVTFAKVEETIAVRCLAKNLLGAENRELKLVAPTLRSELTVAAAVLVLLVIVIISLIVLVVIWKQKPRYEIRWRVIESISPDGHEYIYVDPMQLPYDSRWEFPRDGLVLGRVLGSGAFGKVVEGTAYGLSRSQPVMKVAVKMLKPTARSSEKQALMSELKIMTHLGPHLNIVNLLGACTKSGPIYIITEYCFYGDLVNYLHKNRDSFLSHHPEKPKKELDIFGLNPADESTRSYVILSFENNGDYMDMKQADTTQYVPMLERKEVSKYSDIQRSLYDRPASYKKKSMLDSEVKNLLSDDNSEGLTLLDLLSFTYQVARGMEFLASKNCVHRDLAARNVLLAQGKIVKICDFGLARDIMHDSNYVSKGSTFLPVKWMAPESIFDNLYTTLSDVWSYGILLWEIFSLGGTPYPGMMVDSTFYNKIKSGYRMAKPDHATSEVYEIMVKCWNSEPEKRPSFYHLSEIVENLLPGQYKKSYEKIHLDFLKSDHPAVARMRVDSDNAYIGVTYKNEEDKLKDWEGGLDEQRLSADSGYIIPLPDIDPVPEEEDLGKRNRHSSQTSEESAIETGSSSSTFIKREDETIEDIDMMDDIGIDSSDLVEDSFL

IC50 (PDGFRα): 0.931 ± 0.109 µM
IC50 (Ba/F3 FLT3 D835V): 19 ± 3 nM
IC50 (purified FLT3 WT): 0.0015 µM
IC50 (Ba/F3 FLT3 ITD + D835V): 70 ± 58 nM
IC50 (Ba/F3 FLT3 ITD + D698N): 174 ± 44 nM
IC50 (Ba/F3 FLT3 ITD + D839G): 80 ± 41 nM
IC50 [2]: 57 ± 8 nM
IC50 (Ba/F3 FLT3 ITD + Y842C): 48 ± 29 nM
IC50 (Ba/F3 FLT3 ITD + D835F): 53 ± 36 nM
IC50 (Ba/F3 FLT3 ITD): 57 ± 45 nM
SMILES: CC1NC(=O)c2c1c1c3ccccc3n(CCCN)c1c1[nH]c3ccccc3c21 (stereo not shown) [Star 27]
inhibition at 1 µM ([1]; Homo sapiens, at 1000 nM, read-out: inhibition of colonies, FLT3-D835 (ITD−) blasts): ~60%
raw colony numbers, FLT3 D835Y blasts ([1]; at 1,000 nM, ca. 120 for DMSO plates): ~50
effect on zebrafish embryonic development / morphology (zebrafish embryos): no change in heart and tail morphology; also recorded: no noticeable morphological defects up to 10 μM
